Counter-ions that a name gives are not always drawn.
The compounds below were run against Ba/F3 KRAS-G12V cells (Homo sapiens, UniProt P01116, G12V, cells depend on it) (assay: Proliferation inhibitory activity on Ba/F3 KRAS-G12V stably transfected cell line (CellTiter-Glo, 72 hours)). Settings: read-out: Ba/F3 KRAS-G12V IC50.
Type: cell-based, mouse
Source text: (§1) Test Example 1: Proliferation Inhibitory Activity on Ba/F3 KRAS-G12D, Ba/F3 KRAS-G12V Stably Transfected Cell Lines and AGS Tumor Cell Lines Containing KRAS G12D Mutations
(§2) To determine the proliferation inhibitory activity of the compounds in vitro on mouse pro-B cells Ba/F3 (Ba/F3 KRAS-G12D and Ba/F3 KRAS-G12V cells stably expressing KRAS G12D/V mutant proteins) and gastric cancer AGS cells expressing KRAS G12D mutant protein.
(§3) Cell sources. Ba/F3 KRAS-G12D and Ba/F3 KRAS-G12V were purchased from Kyinno Biotech (Beijing) Co., Ltd, Cat. No.: KC-1259 and KC-1261, respectively; AGS was purchased from Shanghai Bioleaf Biotech Co., Ltd.
(§4) Cells in the logarithmic growth phase were seeded in a 96-well plate (8000, 8000, 4000 cells/well, 90 μL/well for Ba/F3 KRAS-G12D, Ba/F3 KRAS-G12V, and AGS cells respectively), incubated at 37° C. for 1 day with 5% CO2, and then a gradient dilution of the test compound was added thereto (compounds 1 to 28 and comparative compounds). The details were as follows, the compound stock solution (10 mM) previously dissolved in DMSO was diluted to 10 gradient concentrations at a fold ratio (4 fold) and diluted to 10 fold of the target concentration in another 96-well plate with culture medium, and then 10 μL/well of the compound solution was added to the 96-well plate seeded with cells to reach the target concentration (10000, 2500, 625, 156, 39, 10, 2.5, 0.6, 0.15, 0.04 nM). Each concentration was provided with 3 duplicate wells and a blank control. After continued incubation at 37° C. and 5% CO2 for 72 hours, 50 μL of CellTiter-Glo*2.0 reagent (luciferase ATP bioluminescence detection reagent, purchased from Promega, Cat. No.: G9243) was added to each well, shaken for 2 minutes, and incubated at room temperature for 8 minutes, and then fluorescence luminescence intensity was detected (light collection time was 100 ms). The inhibitory rate of compounds with various concentrations on cell proliferation was calculated. Cell proliferation inhibition rate (%)=[(luminous intensitycontrol group containing cell culture medium for 72 hour−luminous intensitycompound group for 72 hour)/(luminous intensitycontrol group containing cell culture medium for 72 hours−luminous intensitycontrol group without cell culture medium for 72 hour)]×100%. GraphPad Prism 8.3 software was used to analyze the data, and nonlinear S-curve regression was used to fit the data to obtain a dose-effect curve, from which the IC50 value was calculated.

Ba/F3 KRAS-G12V cells, sequence (P01116 whole entry G12V): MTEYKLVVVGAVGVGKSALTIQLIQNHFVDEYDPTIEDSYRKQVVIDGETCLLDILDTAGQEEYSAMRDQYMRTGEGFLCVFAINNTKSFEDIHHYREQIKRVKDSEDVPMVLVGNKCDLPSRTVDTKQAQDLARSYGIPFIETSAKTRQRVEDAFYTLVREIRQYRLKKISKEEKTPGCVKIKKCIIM

GI50, 5 to 10 µM:
Cc1cc(N)nc(-c2ncc3c(N4C[C@@H](N)C[C@H](O)C4)nc(OC[C@@]45CCCN4C[C@H](F)C5)nc3c2F)c1C(F)(F)F [Compound 1, (3S,5S)-5-Amino-1-(7-(6-amino-4-methyl-3-(trifluoromethyl)pyridin-2-yl)-8-fluoro-2-(((2R,7aS)-2-fluorohexahydro-1H-pyrrolizin-7a-yl)methoxy)pyrido[4,3-d]pyrimidin-4-yl)piperidin-3-ol bis(2,2,2-trifluoroacetate)]
Cc1cc(N)nc(-c2ncc3c(N4CCC[C@H](N)C4)nc(OC[C@@]45CCCN4C[C@H](F)C5)nc3c2F)c1C(F)(F)F [Compound 2, 6-(4-((S)-3-Aminopiperidin-1-yl)-8-fluoro-2-(((2R,7aS)-2-fluorohexahydro-1H-pyrrolizin-7a-yl)methoxy)pyrido[4,3-d]pyrimidin-7-yl)-4-methyl-5-(trifluoromethyl)pyridin-2-amine tetrakis(2,2,2-trifluoroacetate)]
N[C@H]1CCCN(c2nc(OC[C@@]34CCCN3C[C@H](F)C4)nc3c(F)c(-c4cc(O)cc5ccccc45)ncc23)C1 [Compound 3, 4-(4-((S)-3-Aminopiperidin-1-yl)-8-fluoro-2-(((2R,7aS)-2-fluorohexahydro-1H-pyrrolizin-7a-yl)methoxy)pyrido[4,3-d]pyrimidin-7-yl)naphthalen-2-ol]
N[C@H]1C[C@H](O)CN(c2nc(OC[C@@]34CCCN3C[C@H](F)C4)nc3c(F)c(-c4cc(O)cc5ccccc45)ncc23)C1 [Compound 4, (3S,5S)-5-Amino-1-(8-fluoro-2-(((2R,7aS)-2-fluorohexahydro-1H-pyrrolizin-7a-yl)methoxy)-7-(3-hydroxynaphthalen-1-yl)pyrido[4,3-d]pyrimidin-4-yl)piperidin-3-ol]
N[C@@H]1CCCN(c2nc(OC[C@@]34CCCN3C[C@H](F)C4)nc3c(F)c(-c4cc(O)cc5ccccc45)ncc23)C1 [Compound 5, 4-(4-((R)-3-Aminopiperidin-1-yl)-8-fluoro-2-(((2R,7aS)-2-fluorohexahydro-1H-pyrrolizin-7a-yl)methoxy)pyrido[4,3-d]pyrimidin-7-yl)naphthalen-2-ol]
C#Cc1c(F)ccc2cc(O)cc(-c3ncc4c(N5CCC[C@H](N)C5)nc(OC[C@@]56CCCN5C[C@H](F)C6)nc4c3F)c12 [Compound 7, 4-(4-((S)-3-Aminopiperidin-1-yl)-8-fluoro-2-(((2R,7aS)-2-fluorohexahydro-1H-pyrrolizin-7a-yl)methoxy)pyrido[4,3-d]pyrimidin-7-yl)-5-ethynyl-6-fluoronaphthalen-2-ol]
C#Cc1c(F)ccc2cc(O)cc(-c3ncc4c(N5C[C@@H](N)C[C@H](O)C5)nc(OC[C@@]56CCCN5C[C@H](F)C6)nc4c3F)c12 [Compound 8, (3S,5S)-5-Amino-1-(7-(8-ethynyl-7-fluoro-3-hydroxynaphthalen-1-yl)-8-fluoro-2-(((2R,7aS)-2-fluorohexahydro-1H-pyrrolizin-7a-yl)methoxy)pyrido[4,3-d]pyrimidin-4-yl)piperidin-3-ol]
C#Cc1c(F)ccc2cc(O)cc(-c3ncc4c(N5C[C@@H]6C[C@]6(N)C5)nc(OC[C@@]56CCCN5C[C@H](F)C6)nc4c3F)c12 [Compound 9, 4-(4-((1R,5S)-1-Amino-3-azabicyclo[3.1.0]hexan-3-yl)-8-fluoro-2-(((2R,7aS)-2-fluorohexahydro-1H-pyrrolizin-7a-yl)methoxy)pyrido[4,3-d]pyrimidin-7-yl)-5-ethynyl-6-fluoronaphthalen-2-ol]
C#Cc1c(F)ccc2cc(O)cc(-c3ncc4c(N5C[C@@H]6[C@@H](N)[C@@H]6C5)nc(OC[C@@]56CCCN5C[C@H](F)C6)nc4c3F)c12 [Compound 11, 4-(4-((1R,5S,6R)-6-Amino-3-azabicyclo[3.1.0]hexan-3-yl)-8-fluoro-2-(((2R,7aS)-2-fluorohexahydro-1H-pyrrolizin-7a-yl)methoxy)pyrido[4,3-d]pyrimidin-7-yl)-5-ethynyl-6-fluoronaphthalen-2-ol dihydrochloride]
C#Cc1c(F)ccc2cc(O)cc(-c3ncc4c(N5C[C@@H]6[C@H](N)[C@@H]6C5)nc(OC[C@@]56CCCN5C[C@H](F)C6)nc4c3F)c12 [Compound 12, 4-(4-((1R,5S,6S)-6-Amino-3-azabicyclo[3.1.0]hexan-3-yl)-8-fluoro-2-(((2R,7aS)-2-fluorohexahydro-1H-pyrrolizin-7a-yl)methoxy)pyrido[4,3-d]pyrimidin-7-yl)-5-ethynyl-6-fluoronaphthalen-2-ol bis(2,2,2-trifluoroacetate)]
C#Cc1c(F)ccc2cc(O)cc(-c3ncc4c(N5C[C@H](N)C[C@H](O)C5)nc(OC[C@@]56CCCN5C[C@H](F)C6)nc4c3F)c12 [Compound 13, (3S,5R)-5-Amino-1-(7-(8-ethynyl-7-fluoro-3-hydroxynaphthalen-1-yl)-8-fluoro-2-(((2R,7aS)-2-fluorohexahydro-1H-pyrrolizin-7a-yl)methoxy)pyrido[4,3-d]pyrimidin-4-yl)piperidin-3-ol]
C#Cc1c(F)ccc2cc(O)cc(-c3ncc4c(N5C[C@H](N)C[C@@H](O)C5)nc(OC[C@@]56CCCN5C[C@H](F)C6)nc4c3F)c12 [Compound 14, (3R,5R)-5-Amino-1-(7-(8-ethynyl-7-fluoro-3-hydroxynaphthalen-1-yl)-8-fluoro-2-(((2R,7aS)-2-fluorohexahydro-1H-pyrrolizin-7a-yl)methoxy)pyrido[4,3-d]pyrimidin-4-yl)piperidin-3-ol bis(2,2,2-trifluoroacetate)]
C#Cc1c(F)ccc2cc(O)cc(-c3ncc4c(N5CC[C@H](N)C5)nc(OC[C@@]56CCCN5C[C@H](F)C6)nc4c3F)c12 [Compound 15, 4-(4-((S)-3-Aminopyrrolidin-1-yl)-8-fluoro-2-(((2R,7aS)-2-fluorohexahydro-1H-pyrrolizin-7a-yl)methoxy)pyrido[4,3-d]pyrimidin-7-yl)-5-ethynyl-6-fluoronaphthalen-2-ol]
C#Cc1c(F)ccc2cc(O)cc(-c3ncc4c(N5C[C@@H](N)C[C@@H](O)C5)nc(OC[C@@]56CCCN5C[C@H](F)C6)nc4c3F)c12 [Compound 16, (3R,5S)-5-Amino-1-(7-(8-ethynyl-7-fluoro-3-hydroxynaphthalen-1-yl)-8-fluoro-2-(((2R,7aS)-2-fluorohexahydro-1H-pyrrolizin-7a-yl)methoxy)pyrido[4,3-d]pyrimidin-4-yl)piperidin-3-ol bis(2,2,2-trifluoroacetate)]
Cc1cc(N)nc(-c2nc(N)c3c(N4C[C@H]5CC[C@@H](C4)N5)nc(OC[C@@]45CCCN4C[C@H](F)C5)nc3c2F)c1C(F)(F)F [Compound 19, 7-(6-Amino-4-methyl-3-(trifluoromethyl)pyridin-2-yl)-4-((1R,5S)-3,8-diazabicyclo[3.2.1]octan-3-yl)-8-fluoro-2-(((2R,7aS)-2-fluorohexahydro-1H-pyrrolizin-7a-yl)methoxy)pyrido[4,3-d]pyrimidin-5-amine]

These compounds were tested against Ba/F3 KRAS-G12D cells (Homo sapiens, UniProt P01116, G12D, cells depend on it) (assay: Proliferation inhibitory activity on Ba/F3 KRAS-G12D stably transfected cell line (CellTiter-Glo, 72 hours)). Settings: read-out: Ba/F3 KRAS-G12D IC50.
Ba/F3 KRAS-G12D cells, sequence (P01116 whole entry G12D): as the sequence (P01116 whole entry G12V) above, with V12D counted along it
Type: cell-based, mouse
Source text: as §1, §2, §3, §4

GI50, 5 to 10 µM:
C#Cc1c(F)ccc2cc(O)cc(-c3ncc4c(N5CCC[C@H](N)C5)nc(OC[C@@]56CCCN5C[C@H](F)C6)nc4c3F)c12 [Compound 7, 4-(4-((S)-3-Aminopiperidin-1-yl)-8-fluoro-2-(((2R,7aS)-2-fluorohexahydro-1H-pyrrolizin-7a-yl)methoxy)pyrido[4,3-d]pyrimidin-7-yl)-5-ethynyl-6-fluoronaphthalen-2-ol]
C#Cc1c(F)ccc2cc(O)cc(-c3ncc4c(N5C[C@@H]6C[C@]6(N)C5)nc(OC[C@@]56CCCN5C[C@H](F)C6)nc4c3F)c12 [Compound 9, 4-(4-((1R,5S)-1-Amino-3-azabicyclo[3.1.0]hexan-3-yl)-8-fluoro-2-(((2R,7aS)-2-fluorohexahydro-1H-pyrrolizin-7a-yl)methoxy)pyrido[4,3-d]pyrimidin-7-yl)-5-ethynyl-6-fluoronaphthalen-2-ol]
C#Cc1c(F)ccc2cc(O)cc(-c3ncc4c(N5CC[C@H](N)C5)nc(OC[C@@]56CCCN5C[C@H](F)C6)nc4c3F)c12 [Compound 15, 4-(4-((S)-3-Aminopyrrolidin-1-yl)-8-fluoro-2-(((2R,7aS)-2-fluorohexahydro-1H-pyrrolizin-7a-yl)methoxy)pyrido[4,3-d]pyrimidin-7-yl)-5-ethynyl-6-fluoronaphthalen-2-ol]
